# From ChEMBL document CHEMBL3621157, “Design, synthesis and biological evaluation of novel 1,2,4-triazolo and 1,2,4-triazino[4,3-a]quinoxalines as potential anticancer and antimicrobial agents” (2015)
# How the values were obtained:
# Format in all cases: functional
# Staphylococcus aureus [1] = test: Antimicrobial activity against Staphylococcus aureus DSM 1104 incubated at 37 degC for 24 hrs by cup diffusion method
# Bacillus subtilis [2] = test: Antimicrobial activity against Bacillus subtilis ATCC 6633 incubated at 37 degC for 24 hrs by cup diffusion method
# Pseudomonas aeruginosa [3] = test: Antimicrobial activity against Pseudomonas aeruginosa ATCC 10145 incubated at 37 degC for 24 hrs by cup diffusion method
# Escherichia coli [4] = test: Antimicrobial activity against Escherichia coli ATCC 11775 incubated at 37 degC for 24 hrs by cup diffusion method
# Candida albicans [5] = test: Antimicrobial activity against Candida albicans DSM 70014 incubated at 37 degC for 48 hrs by cup diffusion method
# Staphylococcus aureus [6] = test: Antimicrobial activity against Staphylococcus aureus DSM 1104 incubated for 24 hrs by two-fold serial broth dilution method; settings: DSM 1104, 24 h
# Staphylococcus aureus [7] = test: Antimicrobial activity against Staphylococcus aureus DSM 1104 incubated for 24 hrs followed by transfer of colonies to Muller-Hinton agar plate and measured after 18 hrs by two-fold serial broth dilution method
# Bacillus subtilis [8] = test: Antimicrobial activity against Bacillus subtilis ATCC 6633 incubated for 24 hrs by two-fold serial broth dilution method; settings: ATCC 6633, 24 h
# Bacillus subtilis [9] = test: Antimicrobial activity against Bacillus subtilis ATCC 6633 incubated for 24 hrs followed by transfer of colonies to Muller-Hinton agar plate and measured after 18 hrs by two-fold serial broth dilution method
# Pseudomonas aeruginosa [10] = test: Antimicrobial activity against Pseudomonas aeruginosa ATCC 10145 incubated for 24 hrs by two-fold serial broth dilution method; settings: ATCC 10145, 24 h
# Pseudomonas aeruginosa [11] = test: Antimicrobial activity against Pseudomonas aeruginosa ATCC 10145 incubated for 24 hrs followed by transfer of colonies to Muller-Hinton agar plate and measured after 18 hrs by two-fold serial broth dilution method
# Escherichia coli [12] = test: Antimicrobial activity against Escherichia coli ATCC 11775 incubated for 24 hrs by two-fold serial broth dilution method; settings: ATCC 11775, 24 h
# Escherichia coli [13] = test: Antimicrobial activity against Escherichia coli ATCC 11775 incubated for 24 hrs followed by transfer of colonies to Muller-Hinton agar plate and measured after 18 hrs by two-fold serial broth dilution method
# Candida albicans [14] = test: Antimicrobial activity against Candida albicans DSM 70014 incubated for 48 hrs by two-fold serial broth dilution method; settings: DSM 70014, 48 h
# Candida albicans [15] = test: Antimicrobial activity against Candida albicans DSM 70014 incubated for 48 hrs followed by transfer of colonies to Muller-Hinton agar plate and measured after 18 hrs by two-fold serial broth dilution method
# NCI-H226 = test: Growth inhibition of human NCI-H226 cells at 10 uM incubated for 48 hrs by sulforhodamine B assay; settings: NCI-H226, 48 h, read-out: GI
# SNB-75 = test: Growth inhibition of human SNB75 cells at 10 uM incubated for 48 hrs by sulforhodamine B assay; settings: SNB-75, 48 h, read-out: GI
# A498 = test: Growth inhibition of human A498 cells at 10 uM incubated for 48 hrs by sulforhodamine B assay; settings: A498, 48 h, read-out: GI
# PC-3 = test: Growth inhibition of human PC3 cells at 10 uM incubated for 48 hrs by sulforhodamine B assay; settings: PC-3, 48 h, read-out: GI
# UO-31 = test: Growth inhibition of human UO31 cells at 10 uM incubated for 48 hrs by sulforhodamine B assay; settings: UO-31, 48 h, read-out: GI
# [16] = Growth inhibition of human HOP92 cells at 10 uM incubated for 48 hrs by sulforhodamine B assay; settings: HOP-92, 48 h, read-out: GI
# [17] = Growth inhibition of human NCI-ADR-RES cells at 10 uM incubated for 48 hrs by sulforhodamine B assay; settings: read-out: GI
# MDA-MB-231 = test: Growth inhibition of human MDA-MB-231 cells at 10 uM incubated for 48 hrs by sulforhodamine B assay; settings: MDA-MB-231, 48 h, read-out: GI
# [18] = Growth inhibition of human EKVX cells at 10 uM incubated for 48 hrs by sulforhodamine B assay; settings: read-out: GI
# HCT-116 = test: Growth inhibition of human HCT116 cells at 10 uM incubated for 48 hrs by sulforhodamine B assay; settings: HCT-116, 48 h, read-out: GI
# HCT-15 = test: Growth inhibition of human HCT15 cells at 10 uM incubated for 48 hrs by sulforhodamine B assay; settings: HCT-15, 48 h, read-out: GI
# CAKI-1 = test: Growth inhibition of human Caki1 cells at 10 uM incubated for 48 hrs by sulforhodamine B assay; settings: CAKI-1, 48 h, read-out: GI
# A549 = test: Growth inhibition of human A549 cells at 10 uM incubated for 48 hrs by sulforhodamine B assay; settings: A549, 48 h, read-out: GI
# NCI-H23 = test: Growth inhibition of human NCI-H23 cells at 10 uM incubated for 48 hrs by sulforhodamine B assay; settings: NCI-H23, 48 h, read-out: GI
# HT-29 = test: Growth inhibition of human HT-29 cells at 10 uM incubated for 48 hrs by sulforhodamine B assay; settings: HT-29, 48 h, read-out: GI
# [19] = Growth inhibition of human RXF393 cells at 10 uM incubated for 48 hrs by sulforhodamine B assay; settings: RXF 393, 48 h, read-out: GI
# SF-268 = test: Growth inhibition of human SF268 cells at 10 uM incubated for 48 hrs by sulforhodamine B assay; settings: SF-268, 48 h, read-out: GI
# NCI-H522 = test: Growth inhibition of human NCI-H522 cells at 10 uM incubated for 48 hrs by sulforhodamine B assay; settings: NCI-H522, 48 h, read-out: GI
# OVCAR-3 = test: Growth inhibition of human OVCAR3 cells at 10 uM incubated for 48 hrs by sulforhodamine B assay; settings: OVCAR-3, 48 h, read-out: GI
SMILES,MIC (Staphylococcus aureus [6]) [µg/mL],MIC (Bacillus subtilis [8]) [µg/mL],MIC (Pseudomonas aeruginosa [10]) [µg/mL],MIC (Escherichia coli [12]) [µg/mL],MIC (Candida albicans [14]) [µg/mL],inhibition zone (IZ) (Staphylococcus aureus [1]) [mm],inhibition zone (IZ) (Bacillus subtilis [2]) [mm],inhibition zone (IZ) (Pseudomonas aeruginosa [3]) [mm],inhibition zone (IZ) (Escherichia coli [4]) [mm],inhibition zone (IZ) (Candida albicans [5]) [mm],MBC (Staphylococcus aureus [7]) [µg/mL],MBC (Bacillus subtilis [9]) [µg/mL],MBC (Pseudomonas aeruginosa [11]) [µg/mL],MBC (Escherichia coli [13]) [µg/mL],MFC (Candida albicans [15]) [µg/mL],inhibition of growth at 10 µM (SNB-75) [%],inhibition of growth at 10 µM (UO-31) [%],also measured
CCOC(=O)C/C(C)=N\Nc1nc2ccccc2nc1Cc1ccccc1,100,50,100,50,50,15,12,12,14,14,100,50,100,100,100,–,15.8,inhibition of growth at 10 µM (A498): 17.8%
O=C(O)CCc1nnc2c(Cc3ccccc3)nc3ccccc3n12,25,12.5,25,12.5,50,13,12,12,15,16,50,25,25,25,100,17.7,12.2,inhibition of growth at 10 µM [16]: 18.9%
CCOC(=O)c1nnc2c(Cc3ccccc3)nc3ccccc3n12,50,50,100,50,25,14,13,10,12,15,50,100,100,50,50,10.3,15.1,–
CCOC(=O)Cc1nnc2c(Cc3ccccc3)nc3ccccc3n12,50,100,100,100,25,14,14,14,15,12,100,100,100,100,25,–,–,–
CC1(C)S[C@@H]2[C@H](NC(=O)[C@H](N)c3ccccc3)C(=O)N2[C@H]1C(=O)O [AMPICILLIN],5,12.5,50,10,–,–,–,–,–,–,–,–,–,–,–,–,–,–
Clc1ccccc1C(c1ccccc1)(c1ccccc1)n1ccnc1 [CLOTRIMAZOLE],–,–,–,–,5,–,–,–,–,–,–,–,–,–,–,–,–,–

# Continued, in another order:
MIC (Staphylococcus aureus [6]) [µg/mL],MIC (Bacillus subtilis [8]) [µg/mL],MIC (Pseudomonas aeruginosa [10]) [µg/mL],MIC (Escherichia coli [12]) [µg/mL],MIC (Candida albicans [14]) [µg/mL],SMILES,inhibition zone (IZ) (Staphylococcus aureus [1]) [mm],inhibition zone (IZ) (Bacillus subtilis [2]) [mm],inhibition zone (IZ) (Pseudomonas aeruginosa [3]) [mm],inhibition zone (IZ) (Escherichia coli [4]) [mm],inhibition zone (IZ) (Candida albicans [5]) [mm],MBC (Staphylococcus aureus [7]) [µg/mL],MBC (Bacillus subtilis [9]) [µg/mL],MBC (Pseudomonas aeruginosa [11]) [µg/mL],MBC (Escherichia coli [13]) [µg/mL],MFC (Candida albicans [15]) [µg/mL],inhibition of growth at 10 µM (SNB-75) [%],inhibition of growth at 10 µM (UO-31) [%],also measured
50,50,50,25,100,c1ccc(Cc2nc3ccccc3n3cnnc23)cc1,17,12,14,12,17,100,50,100,25,200,23.5,22.7,inhibition of growth at 10 µM (NCI-H226): 15.5%; inhibition of growth at 10 µM (A498): 38.7%; inhibition of growth at 10 µM (PC-3): 14.2%
50,50,100,50,100,Cc1nnc2c(Cc3ccccc3)nc3ccccc3n12,12,13,11,12,14,100,100,100,50,200,21.9,–,inhibition of growth at 10 µM [16]: 17.6%; inhibition of growth at 10 µM (NCI-H226): 15.1%; inhibition of growth at 10 µM [17]: 12.6%
50,100,50,100,25,O=[N+]([O-])c1ccc(-c2nnc3c(Cc4ccccc4)nc4ccccc4n23)cc1,14,12,12,14,15,100,100,50,100,50,–,–,–
50,50,100,50,50,Brc1ccc(C2=NN=C3C(Cc4ccccc4)=Nc4ccccc4N3C2)cc1,12,12,12,14,14,50,50,100,50,50,–,–,–
100,100,50,100,50,Nc1cc(-c2ccc(Cl)cc2)nn1-c1nc2ccccc2nc1Cc1ccccc1,14,15,12,16,16,100,100,50,100,50,15.6,–,inhibition of growth at 10 µM (NCI-H226): 15.7%; inhibition of growth at 10 µM (MDA-MB-231): 24.9%; inhibition of growth at 10 µM [18]: 21.4%; inhibition of growth at 10 µM (HCT-116): 27.2%; inhibition of growth at 10 µM (HCT-15): 25.6%; inhibition of growth at 10 µM (CAKI-1): 19.3%; inhibition of growth at 10 µM (A549): 22%; inhibition of growth at 10 µM (NCI-H23): 18.5%; inhibition of growth at 10 µM (HT-29): 30.3%; inhibition of growth at 10 µM [19]: 21.3%
100,100,100,100,50,O=c1[nH]nc2c(Cc3ccccc3)nc3ccccc3n12,16,16,12,10,14,200,200,100,100,100,–,35.5,inhibition of growth at 10 µM (A498): 28.6%
100,100,100,25,25,O=C(O)c1ccccc1-c1nnc2c(Cc3ccccc3)nc3ccccc3n12,14,16,12,15,14,200,100,100,50,50,24.4,18,inhibition of growth at 10 µM (SF-268): 14.1%; inhibition of growth at 10 µM (PC-3): 43.9%; inhibition of growth at 10 µM (NCI-H522): 14.6%; inhibition of growth at 10 µM (OVCAR-3): 20.2%
